Source: patent US11590185B2, “Antioxidant composition comprising Sargassum serratifolium extract or fraction thereof as active ingredient” (PUKYONG NATIONAL UNIVERSITY INDUSTRY-UNIVERSITY COOPERATION …, priority 2015, dated 2023)

Key:
661W photoreceptor cells [1] = assay: Cytotoxicity on 661W photoreceptor cells (MTS); type: cell-based, mouse; settings: 661W cells, separated compounds
Procedure: (§1) 661W photoreceptor cells were cultured in 96-wells at a concentration of 3×10^3 cells/well. Then, they were treated with 1.0 μg/ml Sargassum serratifolium ethanol extract or compounds separated therefrom (sargahydroquinoic acid (SHQ), sargachromenol (SCM), and sargaquinoic acid (SQA)) at a concentration of 1.0 μM and cultured for 24 hours. Then, the medium was replaced with medium containing MTS reagent. Then, they were cultured for 1 hour. Cell viability was measured by measuring the absorbance at 490 nm and comparing the results. The cell viability thereof was analyzed by Celltiter^96 Aqueous One solution assay kit (Promega).
as §1, with “viability” for “viability thereof”

661W photoreceptor cells [2] = assay: Cell viability of 661W cells under atRAL oxidative stress (MTS); type: cell-based, mouse; settings: 24 hours; for viability at 0.5 µM: Mus musculus, 661W, 0.5 μM compound with atRAL 1.8 μM
Procedure: In detail, 661W photoreceptor cells were cultured in 96-wells at a concentration of 3×10^3 cells/well and treated with atRAL having a concentration of 1.8 μM (Sigma Aldrich, St. Louis, Mo., USA) for 24 hours. Then, the medium was replaced with medium containing MTS reagent, and they were cultured for 1 hour. The absorbance thereof was measured at 490 nm, and the results were compared to determine cell viability. The cell viability thereof was measured by Celltiter^96 Aqueous One solution assay kit (Promega).

[3] = test system: reactive oxygen species in 661W photoreceptor cells; assay: Reactive oxygen species in atRAL-treated 661W cells (DCFH-DA, flow cytometry); type: cell-based, mouse; settings: 30 minutes
Procedure: For reference, 2′,7′-dichlorodihydrofluorescein diacetate (DCFH-DA) converts to DCF, which expresses fluorescence in response to oxidative stress in cells. Therefore, the expression of DCF in cells is used as an indicator of the degree of oxidative stress.
(§2) In order to examine the antioxidative effect of the Sargassum serratifolium ethanol extract and the compounds separated therefrom of the present invention, atRAL (1.8 μM) and Sargassum serratifolium ethanol extract (0.5 μg/mL), sargachromenol (0.5 μM), sargahydroquinoic acid (0.5 μM), or sargaquinoic acid (1.0 μM) were added to medium mixed with DCFH-DA (20 μM), and the photoreceptor cells were treated with them and cultured for 30 minutes. Then, the cells were washed with PBS, and the cells were recovered. The cells expressing the fluorescence were measured using flow cytometry.
as §2, with “acid (0.5 μM) or sargaquinoic” for “acid (0.5 μM), or sargaquinoic”

[4] = test system: malondialdehyde (MDA) production in 661W photoreceptor cells; assay: Malondialdehyde (MDA) denatured protein in atRAL-treated 661W cells (MDA immunoblot); type: cell-based, mouse; settings: 2 hours; for expression level of MDA-denatured protein compared with group treated with atRAL only: sargachromenol 0.5 μM, sargahydroquinoic acid 0.5 μM or sargaquinoic acid 1.0 μM, with atRAL 1.8 μM
Procedure: For reference, the malondialdehyde (MDA) is the result of lipid peroxidation by excessive oxidative stress in cells, and thus the amount of MDA in cells is a factor to measure the degree of oxidative stress.
(§3) In detail, samples of each of Sargassum serratifolium ethanol extract and the compounds separated therefrom were mixed with a specific amount of atRAL (1.8 μM) and Sargassum serratifolium ethanol extract (0.5 μg/mL), sargachromenol (0.5 μM), sargahydroquinoic acid (0.5 μM), or sargaquinoic acid (1.0 μM). The photoreceptor cells were treated with mixtures thereof. Then, they were cultured for 2 hours. The cells were then washed with PBS and the intracellular proteins were recovered. The number of proteins denatured by the lipid peroxides in cells was analyzed by protein immunoassay using MDA immunoblot kit (Cell biolabs).
as §3, with “acid (0.5 μM) or sargaquinoic” for “acid (0.5 μM), or sargaquinoic”, “treated with mixtures. Then, they” for “treated with mixtures thereof. Then, they”

[5] = DPPH radical scavenging activity; type: biochemical; settings: DPPH 200 μM, 30 minutes, 517 nm
Procedure: For the measurement, 100 μl DPPH having a concentration of 200 μM and 100 μl the sample were mixed in a 96-well plate, and they reacted at room temperature for about 30 minutes. Then, the absorbance thereof was measured at 517 nm using a microplate reader. BHT was used as a positive control. The concentration was compared at the same as that of the sample.
DPPH radical scavenging activity was calculated by the method as described below. Radical scavenging activity (%)=(ADPPH−Asample)/ADPPH×100
For the measurement, 100 μl DPPH having a concentration of 200 μM and 100 μl the sample were mixed in a 96-well plate, and they reacted at room temperature for about 30 minutes. Then, the absorbance thereof was measured at 517 nm using a microplate reader. BHT was used as a positive control. The concentration thereof was compared to the same as that of the sample.
DPPH radical scavenging activity was calculated by the method as described below.

[6] = ABTs assay (ABTs cation scavenging); type: biochemical; settings: 6 minutes, 732 nm
Procedure: The ABTs assay is similar to the DPPH assay but differs in that antioxidative activity is measured by generating free radicals through chemical reactions. ABTs are reacted with potassium persulfate to generate ABTs […] radicals, which react with H-donors such as phenolic compounds to be converted to colorless ABTs. Accordingly, the degree of antioxidative activity may be determined by measuring the amount of ABTs consumed by reacting with a sample containing a phenolic compound.
ABTs antioxidative activity was measured by partially modified Van den Berg (1999) and others using the discoloration of ABTs radical-specific green color by antioxidants.
(§4) Potassium persulfate was added to 7 mM ABTs solution at a final concentration of 2.4 mM. They reacted in the dark for 12 hours to 16 hours at R/T so as to produce ABTs cations. The resulting ABTs cation was diluted to be used, having an absorbance value of 0.7±0.02. […] The absorbance thereof was measured at 732 nm. The radical scavenging activity was calculated from the measured values as follows. […]
as §4, with “mM ABTS” for “mM ABTs”, “mM. […]” for “mM. They reacted in the dark for 12 hours to 16 hours at R/T so as to produce ABTs cations.”

[7] = Hydroxyl radical scavenging (deoxyribose test); type: biochemical; settings: 37° C. 1 hour, 532 nm
Procedure: Hydroxyl radicals (—OH) are the most reactive radicals among oxygen radicals, which occur during aerobic metabolism in the human body. These radicals damage peripheral cells to create collateral living body molecules. A deoxyribose test was performed so as to measure the ability to scavenge hydroxyl radicals. Hydroxyl radicals attack deoxyribose to create small fragments. Some of which are pink when added with TBA (thiobarbituric acid) under an acidic pH environment, so the degree of damage by hydroxyl radicals is measured by absorbance at 532 nm.
Experimental methods described in Chandini, Ganesan, and Bhaskar (Chandini, S. K., Ganesan, p., and Bhaskar, N. (2008) In vitro antioxidant activities of three selected brown seaweeds of India. Food Chemistry, 107, 707-713) were modified to be used. […] 1 ml the sample to be measured was mixed with the working solution, and 0.1 ml ascorbic acid (1 mM) is added to form Fe2+−EDTA mixture which is an […] of ferric chloride (FeCl3) and ethylenediamine tetraacetic acid (EDTA). […] The absorbance thereof was measured. […]
Experimental methods described in Chandini, Ganesan, and Bhaskar (Chandini, S. K., Ganesan, p., and Bhaskar, N. (2008) In vitro antioxidant activities of three selected brown seaweeds of India. Food Chemistry, 107, 707-713) were modified to be used. […] The absorbance thereof was measured. […]

[8] = compound 0.5 μM and atRAL 1.8 μM

CC(C)=CCC/C(=C/CC/C(C)=C/CC/C(C)=C/CC1=CC(=O)C=C(C)C1=O)C(=O)O [sargaquinoic acid]
concentration up to which there was no cytotoxicity (661W photoreceptor cells [1]): ≤ 1000 nM
viability at 0.5 µM (661W photoreceptor cells [2]): > 90%
fluorescence expression level (DCF) reduced compared to group treated with atRAL only ([3]; compound 1.0 μM and atRAL 1.8 μM): 73%
expression level of MDA-denatured protein compared with group treated with atRAL only [4]: effectively reduced

Cc1cc(C(C)(C)C)c(O)c(C(C)(C)C)c1 [BHT]
DPPH (IC50, μg/ml) [5]: 11.18 ± 0.15 µg/mL
ABTs (IC50, μg/ml) [6]: 7.77 ± 0.74 µg/mL
OH radical (IC50, μg/ml) [7]: 1.675 ± 0.21 µg/mL

CC(C)=CCC/C(=C/CC/C(C)=C/CC/C(C)=C/Cc1cc(O)cc(C)c1O)C(=O)O [sargahydroquinoic acid]
viability at 0.5 µM (661W photoreceptor cells [2]): > 90%
fluorescence expression level (DCF) reduced compared to group treated with atRAL only [3, 8]: 77%
fluorescence expression level (DCF) reduced compared to group treated with atRAL only ([3]; compound 0.5 μM and atRAL 1.8 μM, listed as SHQ): about 76%
expression level of MDA-denatured protein compared with group treated with atRAL only [4]: effectively reduced

CC(C)=CCC/C(=C/CC/C(C)=C/CCC1(C)C=Cc2cc(O)cc(C)c2O1)C(=O)O (stereo not drawn) [sargachromenol]
viability at 0.5 µM (661W photoreceptor cells [2]): > 90%
fluorescence expression level (DCF) reduced compared to group treated with atRAL only [3, 8]: 76%
fluorescence expression level (DCF) reduced compared to group treated with atRAL only ([3]; compound 0.5 μM and atRAL 1.8 μM, listed as SCM): ~77%
expression level of MDA-denatured protein compared with group treated with atRAL only [4]: effectively reduced

CC1=C(/C=C/C(C)=C/C=C/C(C)=C/C=O)C(C)(C)CCC1 [atRAL, all-trans-retinal, reference compound]
cell viability reduced in the only atRAL-treated group (661W photoreceptor cells [2]; atRAL 1.8 μM alone): about 55%
fluorescence expression level (DCF) higher than that of the control group ([3]; atRAL 1.8 μM only): about 80%
expression level of protein denatured by MDA compared with the control ([4]; atRAL 1.8 μM only): increased
